The values below come from US6699908B2, “Methods for providing safe local anesthesia” (Euro-Celtique, S.A., priority 1996, dated 2004).

For data set [1] the following is noted: in vivo; cited from earlier work.
In a further data set the test system is Sprague-Dawley rats. Nature of the data set: Single dose toxicity (acute lethality) in rats, intramuscular. It is filed as in vivo. As to conditions: for Mortality: I.M. Here is the method: Sprague-Dawley rats from Charles River, 6-8 weeks of age (body weight about […] for females and about 200-290 grams for males) were used for these studies.
Male and female rats were dosed intramuscularly in the hind limb with bupivacaine base (the form used in the microspheres), aqueous bupivacaine HCl, or LAB. The animals were examined for pharmacotoxic signs (including tremors and convulsions, and death).

A further data set has as its system sciatic nerve. Nature of the data set: Local injection proximal to the sciatic nerve, rat hot plate assay / dose-response. It is filed as in vivo. As to conditions: rats, local injection of 25 mg/kg (8 mg/nerve). On the technique in general: In hot-plate and tail-flick tests a longer latency is read as antinociception.

Where a name gives a salt, the structure may show the parent alone.

`CCCCN1CCCCC1C(=O)Nc1c(C)cccc1C` (stereo not drawn) [bupivacaine]: the “plasma concentrations associated with toxicity” value in data set [1] was above 1600 ng/mL.
As for `CCCCN1CCCCC1C(=O)Nc1c(C)cccc1C` (stereo not drawn) [Bupivacaine free base, bupivacaine base], the values for the Mortality in the data set on Sprague-Dawley rats (50 mg/kg), in the data set with Sprague-Dawley rats (100 mg/kg) and in the data set with Sprague-Dawley rats (150 mg/kg) were 1/4, 1/4 and 2/4, respectively.
As to `CCCCN1CCCCC1C(=O)Nc1c(C)cccc1C` (stereo not drawn) [Bupivacaine HCl, bupivacaine HCl], in the data set with sciatic nerve, the “deaths of the animals” value is recorded as “about 10%”. In addition, the Mortality in the data set with Sprague-Dawley rats (5 mg/kg) is 0/4; in the data set with Sprague-Dawley rats (10 mg/kg), 0/4; with Sprague-Dawley rats (25 mg/kg), 0/4; in the data set with Sprague-Dawley rats (50 mg/kg, HCl), 4/4; in the data set on Sprague-Dawley rats (100 mg/kg, HCl), 4/4. The same compound yielded a lowest lethal dose in the data set with Sprague-Dawley rats (intramuscular dosing) of 10.6 mg/kg. For the same compound, the “paralysis of the hindlimb (local motor anesthesia)” value in the data set on Sprague-Dawley rats (intramuscular dosing in the hind limb) was “More transient paralysis”.
